Tests used:
[1] = system: Colon (SW-620) cancer cell line; assay: SRB in vitro cytotoxicity assay, Colon SW-620; assay type: cell-based, human
Protocol: (§1) Single cell suspension of the tumor cells grown in tissue culture were made, cells counted and cell count adjusted to 1×10^5 to 5×10^5 Ninetysix (96) well plates were seeded with this cell suspension, each well receiving 100 μl of it. The plate was then be incubated at 37° C. temperature in CO2 incubator for 24 hours. Drugs were added at appropriate concentrations after 24-hour, incubation followed by further incubation for 48 hours. Experiment was terminated by gently layering the cells in the wells with 30% TCA and plates were kept in refrigerator for 1 hour following which they were washed thoroughly with tap water, dried attained with 0.4% SRB in 1% acetic aid and finally, the bound SRB eluted with 10 mM tris. Absorbance was read at 540 nm, in the microtitre-plate reader. Optical density of drug-treated cells was compared with that of control cells and cell inhibition was calculated as percent values. […]

[2] = system: CNS (SK-N-SH) cancer cell line; assay: SRB in vitro cytotoxicity assay, CNS SK-N-SH; assay type: cell-based, human
Protocol: as §1

[3] = system: Breast (MCF-7) cancer cell line; assay: SRB in vitro cytotoxicity assay, Breast MCF-7; assay type: cell-based, human
Protocol: as §1

[4] = system: Colon (Colo-205) cancer cell line; assay: SRB in vitro cytotoxicity assay, Colon Colo-205; assay type: cell-based, human
Protocol: as §1

[5] = system: Neuroblastoma (IMR-32) cancer cell line; assay: SRB in vitro cytotoxicity assay, Neuroblastoma IMR-32; assay type: cell-based, human
Protocol: as §1

[6] = system: Liver (HEP-2) cancer cell line; assay: SRB in vitro cytotoxicity assay, Liver HEP-2; assay type: cell-based, human
Protocol: as §1

Topoisomerase-I = target: T1, Topoisomerase-I (Homo sapiens, UniProt P11387); assay: Topoisomerase-I relaxation assay; assay type: biochemical; conditions: at 100 μM (FIG. 2)
T1 sequence (P11387 1-765): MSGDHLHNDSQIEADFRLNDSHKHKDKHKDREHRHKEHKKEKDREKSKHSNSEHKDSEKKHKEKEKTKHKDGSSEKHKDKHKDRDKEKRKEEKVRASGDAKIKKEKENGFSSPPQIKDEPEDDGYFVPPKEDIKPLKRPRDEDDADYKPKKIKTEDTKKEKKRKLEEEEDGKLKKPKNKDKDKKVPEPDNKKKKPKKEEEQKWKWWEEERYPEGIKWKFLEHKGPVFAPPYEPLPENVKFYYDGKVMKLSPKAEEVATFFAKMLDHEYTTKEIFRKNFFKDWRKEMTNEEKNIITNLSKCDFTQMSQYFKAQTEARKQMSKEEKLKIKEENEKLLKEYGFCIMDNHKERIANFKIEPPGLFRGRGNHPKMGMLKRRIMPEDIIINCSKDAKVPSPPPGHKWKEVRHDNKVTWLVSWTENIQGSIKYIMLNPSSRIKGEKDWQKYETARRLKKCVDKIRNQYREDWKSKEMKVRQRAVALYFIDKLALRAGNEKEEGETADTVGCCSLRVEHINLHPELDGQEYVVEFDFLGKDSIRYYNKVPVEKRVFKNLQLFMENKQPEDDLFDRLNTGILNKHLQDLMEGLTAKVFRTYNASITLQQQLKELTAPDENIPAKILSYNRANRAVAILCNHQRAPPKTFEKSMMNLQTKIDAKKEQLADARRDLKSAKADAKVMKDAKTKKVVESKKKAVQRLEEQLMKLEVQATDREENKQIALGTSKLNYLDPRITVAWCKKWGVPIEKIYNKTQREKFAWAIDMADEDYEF
Protocol: Apart from this, some of these analogues were evaluated for Topoisomerase-I relaxation, Topoisomerase-II inhibition, DNA laddering assay and DNA cell cycle analysis. Compounds 3c, 4c, 3d and 4d were analyzed for topoisomerase-I assay at 100 μM (FIG. 2) only compound 3d was found active and rest were not active. Compounds 3d, 4d and 4c were analyzed for topoisomerase inhibition assay.
Reaction was assembled in micro centrifuge tube that contains super coiled DNA 250 ng/μl & Topoisomerase-I (4 units) in assay buffer (10 mM Tris-HCl, pH 7.9, 0.15 M NaCl, 0.1% BSA, and 5.0 mM (beta)-mercaptoethanol). In each reaction 2 μl sample was added then volume was made up to 20 μl with water and then incubated at 37° C. Reaction was terminated by addition of 2 μl of 10% SDS. Each sample tube was treated with proteinase K and extracted once with chloroform: isoamyl alcohol. Products were resolved by 0.8% agarose gel electrophoresis in TAE buffer (40 mM tris-acetate, pH 8.0, and 1 mM EDTA) and stained with 0.5 μg/ml ethedium bromide (EtBr).

Topoisomerase-II = assay: DNA Topoisomerase-II inhibition assay; assay type: biochemical; conditions: FIG. 3
[7] = concentration 1 × 10^−5 (μM/mL)
[8] = concentration 1 × 10^−6 (μM/mL), control drug

Row | SMILES | Growth Inhibition(%) Colon SW-620 [1, 7] [%] | Growth Inhibition(%) CNS SK-N-SH [2, 7] [%] | Growth Inhibition(%) Breast MCF-7 [3, 7] [%] | Growth Inhibition(%) Colon Colo-205 [4, 7] [%] | Growth Inhibition(%) Neuroblastma IMR-32 [5, 7] [%] | Growth Inhibition(%) Liver HEP-2 [6, 7] [%] | activity in topoisomerase-I assay (Topoisomerase-I) | Growth Inhibition(%) Colon SW-620 [1, 8] [%] | Growth Inhibition(%) CNS SK-N-SH [2, 8] [%] | Growth Inhibition(%) Breast MCF-7 [3, 8] [%] | Growth Inhibition(%) Colon Colo-205 [4, 8] [%] | Growth Inhibition(%) Neuroblastma IMR-32 [5, 8] [%] | Growth Inhibition(%) Liver HEP-2 [6, 8] [%] | activity in topoisomerase inhibition assay (Topoisomerase-II) (Topoisomerase-II)
1 | COc1cc([C@@H]2c3cc4c(cc3[C@@H](Nc3cccc5cc6ccccc6cc35)[C@@H]3COC(=O)[C@H]23)OCO4)cc(OC)c1O [Compound 4a, 4′-O-Demethyl-4β-(1″-anthrylamino)-4-desoxypodophyllotoxin] | 22 | 38 | 0 | 39 | 0 | 58 | – | – | – | – | – | – | – | –
2 | COc1cc([C@@H]2c3cc4c(cc3[C@@H](Nc3ccc(C(=O)c5ccc(F)cc5)cc3)[C@@H]3COC(=O)[C@H]23)OCO4)cc(OC)c1OC [Compound 3e, 4β-[4″-(4″-Fluorobenzoyl)anilino]-4-desoxypodophyllotoxin] | 10 | 34 | 30 | 68 | 0 | 0 | – | – | – | – | – | – | – | –
3 | COc1cc([C@@H]2c3cc4c(cc3[C@@H](Nc3ccc5ccc6cccc7ccc3c5c67)[C@@H]3COC(=O)[C@H]23)OCO4)cc(OC)c1OC [Compound 3c, 4β-(1″-Pyrenylamino)-4-desoxypodophyllotoxin] | 29 | 59 | 0 | 64 | 0 | 66 | not active | – | – | – | – | – | – | –
4 | COc1cc([C@@H]2c3cc4c(cc3[C@@H](Nc3cccc5c3Cc3ccccc3-5)[C@@H]3COC(=O)[C@H]23)OCO4)cc(OC)c1O [Compound 4b, 4′-O-Demethyl-4β-(1″-fluorenylamino)-4-desoxypodophyllotoxin] | 15 | 50 | 39 | 55 | 0 | 0 | – | – | – | – | – | – | – | –
5 | COc1cc([C@@H]2c3cc4c(cc3[C@@H](Nc3ccc(C(=O)c5ccc(N(CCCl)CCCl)cc5)cc3)[C@@H]3COC(=O)[C@H]23)OCO4)cc(OC)c1OC [Compound 3f, 4β-(4″-{4″-[Di(2″-chloroethyl)amino]benzoyl}anilino)-4-desoxypodophyllotoxin] | 15 | 83 | 40 | 74 | 0 | 45 | – | – | – | – | – | – | – | –
6 | COc1cccc2c1C(=O)c1c(O)c3c(c(O)c1C2=O)C[C@@](O)(C(=O)CO)C[C@@H]3O[C@H]1C[C@H](N)[C@H](O)[C@H](C)O1 [ADR, Adriamycin, reference compound] | – | – | – | – | – | – | – | 21 | 36 | 23 | 18 | 0 | 23 | –
7 | COc1cc([C@@H]2c3cc4c(cc3[C@@H](Nc3cccc5c3Cc3ccccc3-5)[C@@H]3COC(=O)[C@H]23)OCO4)cc(OC)c1OC [Compound 3b, 4β-(1″-Fluorenylamino)-4-desoxypodophyllotoxin] | 11 | 44 | 4 | 49 | 0 | 77 | – | – | – | – | – | – | – | –
8 | COc1cc([C@@H]2c3cc4c(cc3[C@@H](Nc3ccc(C(=O)c5ccc(F)cc5)cc3)[C@@H]3COC(=O)[C@H]23)OCO4)cc(OC)c1O [Compound 4e, 4′-O-Demethyl-4β-[4″-(4″-fluorobenzoyl)anilino]-4-desoxypodophyllotoxin] | 42 | 91 | 39 | 77 | 11 | 51 | – | – | – | – | – | – | – | –
9 | COc1cc([C@@H]2c3cc4c(cc3[C@@H](Nc3cccc5cc6ccccc6cc35)[C@@H]3COC(=O)[C@H]23)OCO4)cc(OC)c1OC [Compound 3a, 4β-(1″-Anthrylamino)-4-desoxypodophyllotoxin] | 25 | 65 | 5 | 55 | 16 | 46 | – | – | – | – | – | – | – | –
10 | COc1cc([C@@H]2c3cc4c(cc3[C@@H](Nc3cc5c6ccccc6ccc5c5ccccc35)[C@@H]3COC(=O)[C@H]23)OCO4)cc(OC)c1O [Compound 4d, 4′-O-Demethyl-4β-(6″-chrycenylamino)-4-desoxypodophyllotoxin] | 17 | 58 | 0 | 58 | 0 | 76 | not active | – | – | – | – | – | – | None of the compounds are active
11 | COc1cc([C@@H]2c3cc4c(cc3[C@@H](Nc3ccc5ccc6cccc7ccc3c5c67)[C@@H]3COC(=O)[C@H]23)OCO4)cc(OC)c1O [Compound 4c, 4′-O-Demethyl-4β-(1″-pyrenylamino)-4-desoxypodophyllotoxin] | 7 | 40 | 0 | 40 | 0 | 39 | not active | – | – | – | – | – | – | None of the compounds are active

Source: patent US8354547B2, “4β-amino podophyllotoxin congeners as anti tumour antibiotics a process for the preparation thereof” (Council of Scientific & Industrial Research, priority 2008, dated 2013)
